The values that follow come from US8916550B2, “Compounds for modulating TRPV3 function” (Hydra Biosciences, Inc., priority 2005, dated 2014).

The test system of series [1] is Male Holtzman rats, thermal injury. Particulars: Table B comparators; based on our data as well as data available in the literature; cited from earlier work.
Series [2] has as its system rats, carrageenan-injected hindpaw. Particulars: Table B comparators; based on our data as well as data available in the literature; cited from earlier work.
Series [3] relates to Male Holtzmann rats, intraplantar formalin. To be noted: Table B comparators; based on our data as well as data available in the literature; cited from earlier work.
For series [4], the system named is rats, CFA injected hindpaw. Particulars: Table B comparators; based on our data as well as data available in the literature; cited from earlier work.
The subject of series [5] is Male Holtzman rats. To be noted: Table B comparators; based on our data as well as data available in the literature; cited from earlier work.
In series [6] the test system is Male Holtzman rats, thermal injury. Put plainly: Thermal injury model, thermal escape latency (Hargreaves). In kind it is in vivo, rat. On the procedure: The thermal injury model was used to evaluate the effectiveness of an exemplary TRPV3 inhibitor in the treatment of nociceptive pain. FIG. 1 provides a schematic representation of the protocol used to evaluate a TRPV3 inhibitor in the thermal injury model.
(§1) Briefly, the following protocol was followed. Male Holtzman rats (approximately 300 grams) were tested on thermal escape using a Hargreaves type apparatus. Under light anesthesia, a thermal injury (52° C. for 45 seconds) was applied to one heel. The animals were tested for thermal escape latency of the injured and uninjured paw before and at 30, 60, 80 and 120 minutes after injury. Drug (a TRPV3 inhibitor or morphine) or vehicle (0.5% methylcellulose) was administered after the baseline measurement and approximately 15-20 minutes prior to the thermal injury. In addition to the escape latency measurement, behavioral observations were made throughout the experiment.

Series [7] deals with Male Holtzman rats. The experiment in a line: Behavioral deficits / side effects observed in thermal injury experiment (animals affected of n). To be noted: for Blistered paw / Catalepsy / Corneal response / Exopthalmos / Pinna response / Spontaneous agitation / Tactile allodynia: 10 mg/kg. In kind it is in vivo, rat. As for the experimental part: as §1
Table A provides a comparison of the side-effects observed in rats following administration of TRPV3 inhibitor 64, at varying concentrations, versus the side-effects observed in rats administered 10 mg/kg of morphine. Side-effects of rats administered 0.5% methycellulouse were observed and served as a control.

Molecules are shown by their SMILES.

Consider `O=C(NCc1ccc(C(F)(F)F)cc1)Nc1cccc2cnccc12` [TRPV1 Antagonist], for which the Acute thermal injury result in series [1] is “Effective”. Moreover, the “Carrageenan Model” value in series [2] is “Effective”. Moreover, in series [3], the “Formalin Model” value is “Ineffective”. For the same compound, in series [4], the “CFA Model” value is listed as “Effective”.
As to `CN1CC[C@]23c4c5ccc(O)c4O[C@H]2[C@@H](O)C=C[C@H]3[C@H]1C5` [Morphine, morphine], in the series with Male Holtzman rats [5], the Non-narcotic result was “Narcotic”. Further, the Acute thermal injury result in series [1] is on record as “Effective”. Further, the “Carrageenan Model” value in series [2] is given as “Effective”. Besides, the “Effect on escape latency of injured and un-injured paw” value in series [6] (morphine (FIG. 4)) is “does have an effect on both the injured and un-injured paw”. In addition, in series [6] (morphine, FIG. 4 legend), the “Thermal escape latency after treatment” value is recorded as “elevated above the baseline”. The “CFA Model” value in series [4] is reported as “Effective”. Also, in the series with Male Holtzman rats [7] (Pre Injury Observation), the Blistered paw is 0 of 7, the Catalepsy was 0 of 7, the Corneal response is on record as 0 of 7 and the Exopthalmos is recorded as 0 of 7. Also, in the series on Male Holtzman rats [7] (Pre Injury Observation), the Pinna response is reported as 0 of 7, the Spontaneous agitation is recorded as 0 of 7 and the Tactile allodynia was 0 of 7. Besides, in the series with Male Holtzman rats [7] (t = 30 min), the Blistered paw was 0 of 7, the Catalepsy is 4 of 7, the Corneal response is 0 of 7 and the Exopthalmos is 6 of 7. For the same compound, in the series with Male Holtzman rats [7] (t = 30 min), the Pinna response is 5 of 7, the Spontaneous agitation is 0 of 7 and the Tactile allodynia is 0 of 7. In addition, in the series on Male Holtzman rats [7] (t = 60 min), the Blistered paw was 0 of 7, the Catalepsy is 3 of 7, the Corneal response is 0 of 7 and the Exopthalmos is on record as 6 of 7. For the same compound, in the series with Male Holtzman rats [7] (t = 60 min), the Pinna response was 2 of 7, the Spontaneous agitation was 0 of 7 and the Tactile allodynia is 0 of 7. Moreover, in the series with Male Holtzman rats [7] (t = 90 min), the Blistered paw is listed as 0 of 7, the Catalepsy was 1 of 7, the Corneal response is recorded as 0 of 7 and the Exopthalmos is 6 of 7. Also, in the series with Male Holtzman rats [7] (t = 90 min), the Pinna response is reported as 0 of 7, the Spontaneous agitation is reported as 0 of 7 and the Tactile allodynia was 0 of 7. For the same compound, in the series on Male Holtzman rats [7] (t = 120 min), the Blistered paw is given as 0 of 7, the Catalepsy is 0 of 7, the Corneal response is recorded as 0 of 7 and the Exopthalmos was 0 of 7. For the same compound, in the series with Male Holtzman rats [7] (t = 120 min), the Pinna response is given as 0 of 7, the Spontaneous agitation was 0 of 7 and the Tactile allodynia is recorded as 0 of 7. Further, the Side-effects of administration result with Male Holtzman rats [7] (morphine 10 mg/kg) was “exopthalmos (bulging eyes), catalepsy (a near catatonic state), and the pinna response”.
